We go through three compounds from US8912141B2, “Treatment of hepatitis C virus” (Panmed Ltd., priority 2011, dated 2014).

The subject of series [1] is various proteases. The series can be described thus: Protease inhibition. The class given is biochemical.
For series [2], the system named is HCV replicon. The series can be described thus: HCV replicon antiviral assay in Huh7 cells, HCV RNA by RT-PCR, 72 hours; combinations analysed by Prichard-Shipman / Bliss independence. The series is classed as cell-based, hepatitis C virus. The protocol:
Huh7 cells were maintained at 37° C., in an atmosphere of 5% CO2, in DMEM (Dulbecco's modified Eagle medium) supplemented with 2 mM L-glutamine, non-essential amino acids (NEAA), 10% fetal bovine serum (FBS) and […] geneticin. Cells were sub-divided at a 1:3 or 1:4 ratio every 2-3 days. 24 hours prior to the assay, Huh7 cells were collected, counted, plated in 96-well plates at 7,500 cells/well in […] standard maintenance medium, and incubated in the conditions above. To initiate the assay, culture medium was removed, and cells were washed once with PBS (phosphate buffer saline). For control compounds only, […] assay medium (DMEM with L-glutamine, NEAA, and 10% FBS) was added.
Test compounds were prepared as a 10× stock in assay medium. Serial dilutions of compounds in assay medium were added in a total volume of […] and the plates were then rocked to mix, and incubated as described above for 72 hours.
HCV RNA levels were measured using TaqMan® RT-PCR. Total cellular RNA was isolated and amplified by using a RealTime HCV assay (m1000™ Automated Sample Preparation System and M2000rt™ instrument for reverse transcription, PCR amplification, and detection/quantitation, Abbott Molecular Inc.), which detects and quantitates HCV genotypes 1-6. The molecular genotyping method targets the 5′-untranslated (UTR) region of the virus genome and is based on an amplification of the viral genome. […] A negative control, low positive control and high positive control were also introduced. Results are reported in International Units per ml (IU/ml), and 1 IU/ml=4.3 copies/ml. […]
The effects of drug combinations were evaluated according to the method described by Prichard & Shipman [Antiviral Res 1990, 14:181-205]. The theoretical additive effect was calculated from the dose-response curves of individual compounds by the equation Z=X+Y(1−X) (an equation referred to in the art as a Bliss independence model), where X and Y represent the inhibition produced by the individual compounds and Z represents the theoretical effect produced by the combination of compounds. […]
(In general: Replicon systems follow genome replication, usually without infectious particles.)

For series [3] the following is noted: cited from earlier work.

Entries after “also recorded” stand apart in the source; their conditions may differ. Like-named read-outs stand apart in the source and are kept apart here.

`C=C[C@@H]1C[C@]1(NC(=O)[C@@H]1C[C@@H](OC(=O)N2Cc3cccc(F)c3C2)CN1C(=O)[C@@H](NC(=O)OC(C)(C)C)C(C)(C)C)C(=O)NS(=O)(=O)C1CC1` [GNS-227]: in series [1], the protease inhibition activity entry is on record as “exhibit inhibition activity on various proteases; also recorded: exhibit a protease inhibition activity”. Further, the “antiviral activity towards HCV” value in series [2] is given as “an antiviral activity towards HCV”. Further, the “GNS-227 concentration at which synergy was best achieved” value in series [2] (in combination with HCQ) is listed as “about 3.7 nM”.
In the case of `CCN(CC)CCCC(C)Nc1ccnc2cc(Cl)ccc12` (centres unmarked) [chloroquine], in series [3] (in vivo), the “retinotoxicity relative to hydroxychloroquine” value was “much more retinotoxic”.
As to `CCN(CCO)CCCC(C)Nc1ccnc2cc(Cl)ccc12` (centres unmarked) [HCQ, 2-[[4-[(7-chloro-4-quinolinyl)amino]pentyl]ethylamino]ethanol], the “toxicity relative to chloroquine” value is recorded as “less toxic” in series [3] (in vivo) and “one-half as toxic” in series [3] (in vivo, listed as hydroxychloroquine). In addition, the “effectiveness relative to chloroquine” value in series [3] (treating rheumatologic diseases) is “one-half to two-thirds as effective as chloroquine”. The “HCQ concentration at which synergy was best achieved” value in series [2] (in combination with GNS-227) was “about 6 μM”.
